In article PMC11087444, “Multi-functionalization of reduced graphene oxide nanosheets for tumor theragnosis: Synthesis, characterization, enzyme assay, in-silico study, radiolabeling and in vivo targeting evaluation” (DARU Journal of Pharmaceutical Sciences, 2023):
Values belong to the compound of their own block, whether it stands above or below them.

Assays:
[1] = Biodistribution of radiolabeled complexes in normal mice; format: in vivo, Albino mice
[2] = test system: solid tumor (Ehrlich Ascites Carcinoma); assay: Biodistribution and tumor targeting in solid tumor-bearing mice; format: in vivo, Swiss Albino mice
Description: To form a solid tumor, a 0.2 mL of Ehrlich Ascites Carcinoma fluid was administered intramuscularly in the right thigh of female Swiss Albino mice. The animals were well-cared until the tumors became obvious (7- 10 days). The parent tumor line (Ehrlich Ascites Carcinoma) was withdrawn from 7-day-old Swiss Albino donor females and diluted with sterile physiological saline solution to yield 12.5 x 10^6 cells/mL [52].
Biodistribution studies were performed by injecting the solid tumor-bearing mice intravenously with NGO-COOH nanosheets followed by injecting the radiolabeled complexes. The mice were divided into four groups (four mice per group) according to the designated time of dissection. Following the administration of the radiolabeled nanosheets, mice were dissected at 0.5, 1, 2, 4 h post injection (p.i). Blood, solid tumor, and major organs/tissues were collected and wet-weighed. The distribution of the radioactivity in each organ/ fluid was measured ex vivo, the radioactivity in each was detected by a gamma-counter (Perkin Elmer) as presented in Fig. 4. The results were expressed as mean percentage injected dose per gram (%ID/g ± SD).

[3] = test system: human breast cancer MDA-MB-436 cells; assay: MTT cell proliferation assay, cytotoxicity of compounds 3 and 4a-c; format: cell-based; conditions: for IC50: Homo sapiens, MTT, BRCA1 deficient MDA-MB-436 cells; for reduction in potency (cytotoxicity): MDA-MB-436, relative to Staurosporine
Description: The cytotoxicity assay was performed at Department of therapeutic chemistry/ National Research Center. cytotoxic activity of target compounds 3, 4a-c was determined via three independent experiments by 3-(4,5-dimethylthiazolyl-2)-2,5-diphenyltetrazolium bromide (MTT) cell proliferation assay against the cell proliferation of human breast cancer MDA-MB-436 cells carrying natural BRCA1 deficient [R].

[4] = biological target: T1, PARP-1 (Homo sapiens, UniProt P09874); assay: In vitro PARP inhibition assay (HT F Homogeneous PARP Inhibition Assay Kit); format: biochemical
T1 construct: purchased Trevigen 4690-096-K
T1 sequence (P09874 whole entry): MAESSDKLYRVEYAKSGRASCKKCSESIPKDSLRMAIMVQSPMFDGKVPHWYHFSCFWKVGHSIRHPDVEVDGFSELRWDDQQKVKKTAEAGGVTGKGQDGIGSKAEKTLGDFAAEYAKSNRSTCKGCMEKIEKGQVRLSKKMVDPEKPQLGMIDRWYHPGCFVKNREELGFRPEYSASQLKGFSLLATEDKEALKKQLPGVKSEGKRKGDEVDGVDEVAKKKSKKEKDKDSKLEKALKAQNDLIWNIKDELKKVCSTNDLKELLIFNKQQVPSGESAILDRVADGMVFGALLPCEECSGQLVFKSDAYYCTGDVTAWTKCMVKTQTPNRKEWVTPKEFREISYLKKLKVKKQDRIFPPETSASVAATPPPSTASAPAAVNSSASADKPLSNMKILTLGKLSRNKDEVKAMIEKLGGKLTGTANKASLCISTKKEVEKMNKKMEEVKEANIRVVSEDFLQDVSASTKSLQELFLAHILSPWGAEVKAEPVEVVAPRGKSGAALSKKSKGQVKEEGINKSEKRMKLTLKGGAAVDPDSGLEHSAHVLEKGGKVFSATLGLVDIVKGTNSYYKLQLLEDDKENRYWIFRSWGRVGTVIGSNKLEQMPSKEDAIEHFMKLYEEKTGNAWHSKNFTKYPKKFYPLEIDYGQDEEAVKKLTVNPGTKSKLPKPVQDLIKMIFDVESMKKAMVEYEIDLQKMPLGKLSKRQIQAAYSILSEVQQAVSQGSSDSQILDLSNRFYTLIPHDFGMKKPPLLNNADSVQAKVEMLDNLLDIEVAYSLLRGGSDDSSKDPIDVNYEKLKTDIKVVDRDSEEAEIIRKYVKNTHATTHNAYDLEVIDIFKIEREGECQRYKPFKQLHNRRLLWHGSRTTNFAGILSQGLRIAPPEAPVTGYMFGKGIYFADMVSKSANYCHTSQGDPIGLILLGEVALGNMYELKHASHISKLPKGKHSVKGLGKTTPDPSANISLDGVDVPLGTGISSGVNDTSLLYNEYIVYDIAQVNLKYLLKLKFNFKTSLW
Description: Olaparib was used as positive control. Fluorescence values under the condition of excitation wavelength (544 nm) and emission wavelength (590 nm) were measured using a multi-well spectrophotometer (Molecular Devices SpectraMax M5 microplate reader, Careforde, Chicago, USA). Then, the standard curve was drawn and the inhibition rate of each test compound was calculated. IC50 value of each compound was calculated using GraphPad Prism 6 software.

Compound: [^99mTc]Tc-2,4-dioxo-1,2,3,4-tetrahydroquinazoline-7-sulfonohydrazide [^99mTc-3]
blood uptake ([1]; normal mice, i.v., 0.5 h p.i.): 10.5 ± 1.4 %ID/g | liver uptake ([1]; normal mice, i.v., 0.5 h p.i.): 11 ± 1.7 %ID/g | liver uptake ([1]; normal mice, i.v., 1 h p.i.): 12 ± 1.2 %ID/g | blood uptake ([1]; normal mice, i.v., 4 h p.i.): 3.2 ± 0.4 %ID/g | liver uptake ([1]; normal mice, i.v., 4 h p.i.): 8 ± 1.3 %ID/g | tumor uptake ([2]; solid tumor-bearing mice, i.v., 0.5 h p.i.): 5.0 ± 0.40 %ID/g | tumor uptake ([2]; solid tumor-bearing mice, i.v., 2 h p.i.): 6.5 ± 0.3 %ID/g | tumor uptake ([2]; solid tumor-bearing mice, i.v., 4 h p.i.): 6.0 ± 0.4 %ID/g

Compound: [^99mTc]Tc-NGO-COOH-2,4-dioxo-1,2,3,4-tetrahydroquinazoline-7-sulfonohydrazide [^99mTc-NGO-COOH-3]
blood uptake ([1]; mouse, in vivo, iv, 0.5 h): 5.0 ± 0.5 %ID/g | liver uptake ([1]; mouse, in vivo, iv, 0.5 h): 7.0 ± 0.7 %ID/g | blood uptake ([1]; mouse, in vivo, iv, 4 h): 1 ± 0.1 %ID/g | liver uptake ([1]; mouse, in vivo, iv, 4 h): 15.0 ± 1.5 %ID/g | target/nontarget (T/NT) ratio, tumor muscle to contralateral normal muscle ([2]; mouse, in vivo, iv): 9.0 | tumor uptake ([2]; mouse, in vivo, iv, 0.5 h): 7.0 ± 0.70 %ID/g | tumor uptake ([2]; mouse, in vivo, iv, 1 h): 12.0 ± 1.2 %ID/g

Compound: NNS(=O)(=O)c1ccc2c(=O)[nH]c(=O)[nH]c2c1 [Compound 3, 2,4-dioxo-1,2,3,4-tetrahydroquinazoline-7-sulfonohydrazide]
IC50 [3]: 6 nM | times more potent than Staurosporine (cytotoxicity) ([3]; MDA-MB-436, ratio of IC50): about 1.6 times | IC50 [4]: 261 nM | melting point: 268 to 270 °C

Continued, in another order:

IC50 [4]: 436 nM | melting point: > 300 °C
Compound: Cc1ccc(NS(=O)(=O)c2ccc3c(=O)[nH]c(=O)[nH]c3c2)cc1 [Compound 4a, 2,4-Dioxo-N-(p-tolyl)-1,2,3,4-tetrahydroquinazoline-7-sulfonamide]
IC50 [3]: 50 nM | reduction in potency (cytotoxicity) [3]: 5 folds

IC50 [4]: 167 nM | melting point: 280 to 282 °C
Compound: O=C(O)c1ccccc1NS(=O)(=O)c1ccc2c(=O)[nH]c(=O)[nH]c2c1 [Compound 4b, 2-(2,4-Dioxo-1,2,3,4-tetrahydroquinazoline-7-sulfonamido) benzoic acid]

IC50 [4]: 153 nM | melting point: 265 to 267 °C
Compound: O=c1[nH]c(=O)c2ccc(S(=O)(=O)Nc3nccs3)cc2[nH]1 [Compound 4c, 2,4-dioxo-N-(thiazol-2-yl)-1,2,3,4-tetrahydroquinazoline-7-sulfonamide]
IC50 [3]: 40 nM | reduction in potency (cytotoxicity) [3]: 4 folds
